Legend:
E. coli MG1655 [1] = test: Phase-contrast imaging of treated cells; type: cell-based; conditions: Figure S5
PBP3 = PBP3 (Escherichia coli, UniProt P0AD68); type: cell-based, Escherichia coli MG1655
PBP1b = PBP1b (Escherichia coli, UniProt P02919); type: cell-based, Escherichia coli MG1655
PBP1a = PBP1a (Escherichia coli, UniProt P02918); type: cell-based, Escherichia coli MG1655
PBP2 = PBP2 (Escherichia coli, UniProt P0AD65); type: cell-based, Escherichia coli MG1655
PBP4 [2] = molecular target: T1, PBP4 (Escherichia coli, UniProt P24228); type: cell-based, Escherichia coli MG1655; conditions: for Bocillin-FL labeling of PBP4 at high inhibitor concentration: 10 mM inhibitor, all three biological replicates
PBP7 = PBP7 (Escherichia coli, UniProt P0AFI5); type: cell-based, Escherichia coli MG1655
PBP5/6 = type: cell-based, Escherichia coli MG1655; conditions: 10 mM inhibitor, all three biological replicates
PBP4 [3] = conditions: read-out: reported IC50 values PBP4; literature range; cited from earlier work
PBP4 [4] = molecular target: T1, PBP4; test: Meropenem titration against the PBPs in cell lysate; type: binding; conditions: E. coli MG1655 lysate, in vitro (Figure S3)
E. coli MG1655 [5] = test: Growth curve analysis of viability after permeabilization; conditions: 200 μM in Tris for 30 min, then LB broth 37 °C, A600 over 18 h
[6] = 10 mM inhibitor, all three biological replicates

| Compound | IC50 (PBP3) [µM] | IC50 (PBP1b) [µM] | IC50 (PBP1a) [µM] | IC50 (PBP2) [µM] | IC50 (PBP4 [2]) [µM] | IC50 (PBP7) [µM] | also measured |
| --- | --- | --- | --- | --- | --- | --- | --- |
| O=C(O)CN(CCN(CC(=O)O)CC(=O)O)CC(=O)O [Tris-EDTA, ethylenediaminetetraacetic acid] |  |  |  |  |  |  | fold increases in PBP labeling in comparison to Tris alone (PBPs; cotreatment with 25 μM Bocillin-FL in 50 mM Tris-200 μM EDTA, 30 min): 1.2–5 fold; fold increases in Bocillin-FL labeling in comparison to the original DC2 method (PBPs; vs 7.5 μM Bocillin-FL in PBS, 10 min): 2 to 61 fold; cell morphology by phase-contrast imaging (E. coli MG1655 [1]): little difference in the morphologies |
| NC(=O)[C@@H]1CC[C@@H]2CN1C(=O)N2OS(=O)(=O)O [avibactam] | > 10000 | 310 ± 460 | > 10000 | < 100 | > 10000 |  |  |
| C[C@H]1[C@H](NC(=O)/C(=N\OC(C)(C)C(=O)O)c2csc(N)n2)C(=O)N1S(=O)(=O)O [aztreonam] |  | 1.6 ± 0.9 | 970 ± 940 | > 10000 | > 10000 |  | Bocillin-FL labeling of PBP7 at high inhibitor concentration (PBP7; [6]): increased Bocillin-FL labeling; Bocillin-FL labeling of PBP2 at high inhibitor concentration (PBP2; [6]): increased Bocillin-FL labeling; Bocillin-FL labeling of PBP4 at high inhibitor concentration (PBP4 [2]): increased Bocillin-FL labeling |
| N[C@@H](C(=O)N[C@@H]1C(=O)N2C(C(=O)O)=C(Cl)CS[C@H]12)c1ccccc1 [cefaclor] | 15 ± 14 | > 10000 | > 10000 | 360 ± 210 | > 10000 | 86 ± 66 | Bocillin-FL labeling of PBP5/6 at high inhibitor concentration (PBP5/6): labeling was increased |
| CO/N=C(\C(=O)N[C@@H]1C(=O)N2C(C(=O)[O-])=C(C[N+]3(C)CCCC3)CS[C@H]12)c1csc(N)n1 [cefepime] | < 0.0001 | 2.6 ± 2.4 | 5.5 ± 2.6 | 0.2 ± 0.1 | > 10000 |  | Bocillin-FL labeling of PBP5/6 at high inhibitor concentration (PBP5/6): increased Bocillin-FL labeling; Bocillin-FL labeling of PBP4 at high inhibitor concentration (PBP4 [2]): increased Bocillin-FL labeling |
| CO/N=C(\C(=O)N[C@@H]1C(=O)N2C(C(=O)O)=C(CSc3nc(=O)c(=O)[nH]n3C)CS[C@H]12)c1csc(N)n1 [ceftriaxone] |  | 0.2 ± 0.2 | 4.9 ± 2.2 | 1.5 ± 0.9 | 3 ± 8 | 9.5 ± 9.8 |  |
| CO/N=C(\C(=O)N[C@@H]1C(=O)N2C(C(=O)O)=C(COC(N)=O)CS[C@H]12)c1ccco1 [cefuroxime] | 0.02 ± 0.01 | 1.6 ± 1.9 | 73 ± 42 | 91 ± 65 | 24 ± 22 | 25 ± 31 |  |
| CC1=C(C(=O)O)N2C(=O)[C@@H](NC(=O)[C@H](N)c3ccccc3)[C@H]2SC1 [cephalexin] |  | > 10000 | > 10000 |  | 68 ± 79 | 200 ± 250 |  |
| C[C@@H](O)[C@H]1C(=O)N2C(C(=O)O)=C([C@H]3CCCO3)S[C@H]12 [faropenem] |  | 0.4 ± 0.2 | 6.4 ± 3.6 | 0.04 ± 0.04 | 2 ± 1.6 | 1.2 ± 1.8 |  |
| C[C@@H](O)[C@H]1C(=O)N2C(C(=O)O)=C(S[C@@H]3CN[C@H](C(=O)N(C)C)C3)[C@H](C)[C@H]12 [meropenem] |  | 110 ± 86 | > 10000 | 0.01 | > 10000 |  | IC50 (PBP4 [3]): 0.1 to 10 nM; PBP4 inhibition in lysate (PBP4 [4]): no PBP4 inhibition |
| COc1cccc(OC)c1C(=O)N[C@@H]1C(=O)N2[C@@H]1SC(C)(C)[C@@H]2C(=O)O [methicillin] |  |  | > 10000 |  | 87 ± 51 | 58 ± 70 |  |
| CC1(C)S[C@@H]2[C@H](NC(=O)Cc3ccccc3)C(=O)N2[C@H]1C(=O)O [penicillin G] | 15 ± 9 | 1.5 ± 0.7 | 170 ± 93 | 65 ± 36 |  |  |  |
| CCN1CCN(C(=O)N[C@@H](C(=O)N[C@@H]2C(=O)N3[C@@H]2SC(C)(C)[C@@H]3C(=O)O)c2ccccc2)C(=O)C1=O [piperacillin] |  | 12 ± 7.4 | 17 ± 15 | 2.8 ± 2.8 | 25 ± 24 | 2.3 ± 2.5 |  |
| colistin |  |  |  |  |  |  | lag in growth (E. coli MG1655 [5]): ~ 10 h |
